Test results: patent US20240366555A1, “SELECTIVE MTORC2 INHIBITOR AND USES THEREOF” (ALIAD BIOPHARMA, priority 2021, published 2024)

Assays:
mTORC2 signaling pathway = assay: Immunoblot analysis of mTORC2 signaling pathway in A549 cells; format: cell-based, human
Experimental: In order to investigate the effect on the mTORC2 signaling pathway of norathyriol in a culture cell model, after treating norathyriol to a human cell line A549, Akt Ser473 phosphorylation, Akt Thr308 phosphorylation, and NDRG1 Thr346 phosphorylation were measured by immunoblot analysis over time. The A549 cells were cultured in RPMI culture medium in which 10% heat inactivated FBS and 1× GlutaMax were added. After seeding the A549 cells of 2×10^5 in a 60 mm culture dish and culturing them for 1 day, norathyriol was treated to the cells. The cells were washed with ice-cold 1× PBS twice, and then the cells were […] using RIPA buffer (50 mM Tris-HCl (pH7.4), 150 mM NaCl, 0.25% sodium deoxycholate, 1% NP-40, 1% SDS, 1 mM EDTA, 1 mM EGTA, 1 mM sodium β-glycerophosphate, 1 mM PMSF, 1 μg/ml leupeptin, 1 μg/ml pepstatin A, 10 nM aprotinin, 1 mM Na3VO4, 50 mM NaF, 10 nM calyculin A) on ice. After removing undissolved substances by centrifuging at 4° C. at 15,000× g for 15 minutes, the supernatant was recovered to determine the protein concentration with BCA protein assay kit (Thermo Fisher Scientific). 2× SDS-PAGE sample buffer in the same volume was added to the supernatant and boiled for 5 minutes, and then it was developed under a reducing condition by SDS-polyacrylamide gel electrophoresis. The developed protein was transferred into a PVDF membrane by an electro blotting method. The membrane was blocked in TBST containing 5% skim milk (100 mM Tris-Cl, pH 8.8, 150 mM NaCl, 0.1% Tween-20) at a room temperature for 1 hour, and then it was reacted with a primary antibody. After washing with TBST for 10 minutes 3 times, it was reacted with a secondary antibody conjugated with HRP. After washing with TBST for 10 minutes 3 times, it was reacted with an enhanced chemiluminescence (ECL) reagent to obtain an image of the protein combined with the secondary antibody. For the immunoblot analysis, AKT antibody (#4691, Cell Signaling), phospho-Ser473 AKT antibody (#4060, Cell Signaling), phospho-Thr308 AKT antibody (#2965, Cell Signaling), p70 S6 kinase antibody (#9202, Cell Signaling), and phospho-Thr389 p70 S6 kinase antibody (#9205, Cell Signaling) were used.
mTORC2 activates SGK1, and SGK1 phosphorylates NDRG1 Thr346. NDRG1 phosphorylated at Thr346 is removed by a ubiquitination-proteasome system. Accordingly, when the mTORC2 activity is inhibited, NDRG1 Thr346 phosphorylation is reduced, whereas NDRG1 protein increases.

Pten KO mice = assay: Macrocephaly alleviation (brain weight) in Pten KO mice; format: in vivo; parameters: average brain weight: unit not given here; details: for average brain weight: FIG. 5
Experimental: As Pten KO mice, Ptenf/f_cre/cre KO mice or Ptenf/f_cre/++ Het mice (KD) were obtained by mating Pten floxed/floxed mice and CAMKII-cre mice. DMSO or athyriol was intraperitoneally injected at 5 or 10 mg/kg for 2 weeks from the age of mice of 6 weeks, and a behavioral test was performed in 7 days after administration. Pten floxed/floxed mice were used as littermates of the same age as a normal control group.
When athyriol was administered into Pten KO mice, whether the weight of brain increased compared to a mouse without Pten knockout was reduced was confirmed. In other words, whether athyriol had efficacy of alleviating macrocephaly symptoms was confirmed through the following experiment.
Specifically, the body weight was measured after the aforementioned behavioral test of Experimental examples 1-2 to 1-6, and then animals were sacrificed. After removing the skull, the brain including forebrain, midbrain and hindbrain was extracted and the ratio of brain weight to body weight and the body weight were measured.

Row | Structure (SMILES) | Akt Ser473 phosphorylation (mTORC2 activity indicator) (mTORC2 signaling pathway; FIG. 7a) | Akt Thr308 phosphorylation (PDK1 activity indicator) (mTORC2 signaling pathway; FIG. 7a) | NDRG1 protein (mTORC2 signaling pathway; FIG. 7b) | ratio of NDRG1 Thr346 phosphorylation to NDRG1 protein (mTORC2 signaling pathway; FIG. 7b) | brain weight corrected by body weight, increase compared to control group (Pten KO mice; 5 mg/kg) | average brain weight (Pten KO mice; 5 mg/kg for 14 days) | brain weight corrected by body weight, increase compared to control group (Pten KO mice; 10 mg/kg) [times] | average brain weight (Pten KO mice; 10 mg/kg for 14 days) | alleviation of macrocephaly symptoms (Pten KO mice; 5 or 10 mg/kg for 14 days) [%]
1 | O=c1c2cc(O)c(O)cc2oc2cc(O)cc(O)c12 [norathyriol, 1,3,6,7-tetrahydroxy-9H-xanthen-9-one] | reduced | not reduced and rather increased after 24 hours | increased significantly | reduced |  |  |  |  | 
2 | COc1cc(O)c2c(=O)c3cc(O)c(O)cc3oc2c1 [athyriol, 1,6,7-Trihydroxy-3-methoxy-9H-xanthen-9-on] |  |  |  |  | about 1.3 times | 517 | ~1.26 | 515 | ≥ 68
